According to ChEMBL document CHEMBL5346924, “Optically activated MEK1/2 inhibitors (Opti-MEKi) as potential antimelanoma agents” (Eur J Med Chem, 2023):
The source made the active and inactive calls. The calls are words filed in the database; no cut-off is given here.

Key:
A-375 [1] = experiment: Antiproliferative activity against human A-375 cells harboring BRAF V600E mutant assessed as cell growth inhibition incubated for 72 hrs in the absence of UV irradiation by CellTiter-Glo luminescent assay; format: functional; conditions: A-375, light or radiation study
A-375 [2] = experiment: Antiproliferative activity against human A-375 cells harboring BRAF V600E mutant assessed as cell growth inhibition preincubated with compound for 1 hrs followed by 365 nm light irradiation for 5 mins and measured 72 hrs post compound treatment by CellTiter-Glo luminescent assay; format: functional; conditions: A-375, light or radiation study
[3] = Cytotoxicity against HEK293T cells assessed as cell growth inhibition preincubated with compound for 1 hrs followed by 365 nm light irradiation for 5 mins and measured 72 hrs post compound treatment by CellTiter-Glo luminescent assay; format: toxicity, cell-based, HEK-293T; conditions: human
A-375 [4] = experiment: Antiproliferative activity against human A-375 cells harboring BRAF V600E mutant assessed as cell growth inhibition preincubated with compound for 1 hrs followed by UV irradiation for 1 min and measured 72 hrs post compound treatment by CellTiter-Glo luminescent assay; format: functional; conditions: A-375, light or radiation study
A-375 [5] = experiment: Antiproliferative activity against human A-375 cells harboring BRAF V600E mutant assessed as cell growth inhibition preincubated with compound for 1 hrs followed by UV irradiation for 3 mins and measured 72 hrs post compound treatment by CellTiter-Glo luminescent assay; format: functional; conditions: A-375, light or radiation study
A-375 [6] = experiment: Antiproliferative activity against human A-375 cells harboring BRAF V600E mutant assessed as cell growth inhibition preincubated with compound for 1 hrs followed by UV irradiation for 5 mins and measured 72 hrs post compound treatment by CellTiter-Glo luminescent assay; format: functional; conditions: A-375, light or radiation study
HCT-116 [7] = experiment: Antiproliferative activity against human HCT-116 cells harboring KRAS G13D mutant assessed as cell growth inhibition incubated for 72 hrs in the absence of UV irradiation by CellTiter-Glo luminescent assay; format: functional; conditions: HCT-116, light or radiation study
HCT-116 [8] = experiment: Antiproliferative activity against human HCT-116 cells harboring KRAS G13D mutant assessed as cell growth inhibition preincubated with compound for 1 hrs followed by UV irradiation for 5 mins and measured 72 hrs post compound treatment by CellTiter-Glo luminescent assay; format: functional; conditions: HCT-116, light or radiation study
A549 [9] = experiment: Antiproliferative activity against human A549 cells harboring KRAS […] mutant assessed as cell growth inhibition incubated for 72 hrs in the absence of UV irradiation by CellTiter-Glo luminescent assay; format: functional; conditions: A549, light or radiation study
A549 [10] = experiment: Antiproliferative activity against human A549 cells harboring KRas […] mutant assessed as cell growth inhibition preincubated with compound for 1 hrs followed by UV irradiation for 5 mins and measured 72 hrs post compound treatment by CellTiter-Glo luminescent assay; format: functional; conditions: A549, light or radiation study
[11] = Cytotoxicity against HEK293T cells assessed as cell growth inhibition incubated for 72 hrs by CellTiter-Glo luminescent assay; format: toxicity, cell-based, HEK-293T; conditions: human
[12] = Photoactivation of the compound assessed as photocleavage by measuring decay half-life in the presence of 365 nm UV irradiation by HPLC based LC-MS analysis
[13] = Photoactivation of the compound assessed as photocleavage in the presence of 365 nm UV irradiation by HPLC based LC-MS analysis
[14] = Stability of the compound in PBS-DMSO solution assessed as drug degradation measured after 12 hrs in the absence of light irradiation; format: physicochemical; conditions: read-out: Drug degradation
A-375 [15] = experiment: Inhibition of colony formation in human A-375 cells at 10 to 300 nM incubated for 10 days by crystal violet staining based analysis; format: functional, cell-based; conditions: dose 10-300 nM, time 10.0 day
[16] = biological target: Mitogen-activated protein kinase; ERK1/ERK2 (Homo sapiens, UniProt P27361+P28482); experiment: Inhibition of ERK1/2 phosphorylation in human A-375 cells incubated for 1 hrs in the absence of UV irradiation by Western blot analysis; format: cell-based
[17] = Stability in human blood plasma assessed as half-life; format: ADME, cell-free
[18] = Stability of the compound under 365 nm UV irradiation measured after 10 mins; format: physicochemical
[19] = biological target: Dual specificity mitogen-activated protein kinase kinase 1 (Homo sapiens, UniProt Q02750); experiment: Inhibition of MEK1 (unknown origin) incubated for 1 hrs in the presence of ATP by FRET-based Z'-Lyte assay
[20] = Photoactivation of the compound assessed as fold change in caging efficiency
[21] = Photoactivation of the compound assessed as photocleavage by measuring mirdametinib recovery in the presence of 365 nm UV irradiation by HPLC based LC-MS analysis

Dual specificity mitogen-activated protein kinase kinase 1, sequence (Q02750 whole entry): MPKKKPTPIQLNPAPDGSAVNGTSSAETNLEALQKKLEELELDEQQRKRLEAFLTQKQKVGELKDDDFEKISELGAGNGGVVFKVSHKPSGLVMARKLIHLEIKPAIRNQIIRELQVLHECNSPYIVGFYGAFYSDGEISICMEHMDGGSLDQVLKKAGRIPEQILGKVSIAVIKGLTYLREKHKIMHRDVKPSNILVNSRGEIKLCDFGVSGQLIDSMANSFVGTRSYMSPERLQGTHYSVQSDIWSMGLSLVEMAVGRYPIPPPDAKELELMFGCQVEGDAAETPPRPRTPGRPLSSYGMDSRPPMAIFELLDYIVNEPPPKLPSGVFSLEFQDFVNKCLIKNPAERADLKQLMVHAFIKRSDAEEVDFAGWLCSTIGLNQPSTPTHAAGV

GI50 (A-375 [1]) [nM]	GI50 (A-375 [2]) [nM]	GI50 (A-375 [4]) [nM]	GI50 (A-375 [5]) [nM]	GI50 (A-375 [6]) [nM]	GI50 (HCT-116 [7]) [nM]	GI50 (HCT-116 [8]) [nM]	GI50 (A549 [9]) [nM]	GI50 (A549 [10]) [nM]	half-life [12] [min]	SMILES	GI50 at 72 h [3] [nM]	GI50 at 72 h [11] [nM]	other results
> 100000	15.8	–	–	–	–	–	–	–	–	CCN(CC)c1ccc2c(COC(=O)[C@H](C)NC(=O)OC(C)(C)C)cc(=O)oc2c1	> 100000	–	–
> 100000	> 100	–	–	–	–	–	–	–	–	CC(OC(=O)[C@H](C)NC(=O)OC(C)(C)C)c1cc2c(cc1[N+](=O)[O-])OCO2 (some centres undefined)	> 100000	–	–
> 100000	> 100	–	–	–	–	–	–	–	–	COc1cc(COC(=O)[C@H](C)NC(=O)OC(C)(C)C)c([N+](=O)[O-])cc1OC	> 100000	–	–
> 100000	> 100	–	–	–	–	–	–	–	–	COc1cc(C(C)OC(=O)[C@H](C)NC(=O)OC(C)(C)C)c([N+](=O)[O-])cc1OC (some centres undefined)	> 100000	–	–
605	–	128	36.7	40.3	> 10000	236	> 10000	896	1.68	O=[N+]([O-])c1cc2c(cc1CO/C(=N\OC[C@H](O)CO)c1ccc(F)c(F)c1Nc1ccc(I)cc1F)OCO2	–	> 10000	Drug metabolism [13]: Metabolite_Detected
3.36	–	–	–	–	–	–	–	–	–	O=C(NOCCO)c1ccc(F)c(F)c1Nc1ccc(I)cc1F	–	–	–
1170	–	272	82.8	82.2	1920	1050	> 10000	1890	1.71	COc1cc(CO/C(=N\OC[C@H](O)CO)c2ccc(F)c(F)c2Nc2ccc(I)cc2F)c([N+](=O)[O-])cc1OC	–	> 10000	–
1520	–	–	–	–	–	–	–	–	–	COc1ccc(CN(c2ccc(I)cc2F)c2c(C(=O)NOC[C@H](O)CO)ccc(F)c2F)cc1OC	–	–	–
7130	–	43.4	16	9.4	–	–	–	–	0.52	COc1cc(COCCONC(=O)c2ccc(F)c(F)c2Nc2ccc(I)cc2F)c([N+](=O)[O-])cc1OC	–	–	–
3610	–	28.6	9.7	7.17	> 10000	169	> 10000	478	1.26	CC(O/C(=N\OC[C@H](O)CO)c1ccc(F)c(F)c1Nc1ccc(I)cc1F)c1cc2c(cc1[N+](=O)[O-])OCO2 (some centres undefined)	–	> 10000	Drug metabolism [13]: Metabolite_Detected
> 100000	> 100	–	–	–	–	–	–	–	–	C[C@H](NC(=O)OC(C)(C)C)C(=O)O	> 100000	–	–
> 100000	> 100	–	–	–	–	–	–	–	–	C[C@H](NC(=O)OC(C)(C)C)C(=O)OCc1cc2c(cc1[N+](=O)[O-])OCO2	> 100000	–	–
18.1	–	9.95	3.76	5.59	–	–	–	–	0.19	COc1cc(CN(c2ccc(I)cc2F)c2c(C(=O)NOC[C@H](O)CO)ccc(F)c2F)c([N+](=O)[O-])cc1OC	–	–	degraded at 12 h [14]: > 30%
1.28	–	1.37	1.59	1.49	44.7	52.5	4.94	10.6	–	O=C(NOC[C@H](O)CO)c1ccc(F)c(F)c1Nc1ccc(I)cc1F [MIRDAMETINIB]	–	> 10000	inhibition (A-375 [15]): Active; EC50 [16]: ~ 1.2 nM; half-life [17]: > 289 min; Stability [18]: Stable
9800	–	222	123	108	1500	1750	> 10000	270	0.2	CCN(CC)c1ccc2c(CO/C(=N\OC[C@H](O)CO)c3ccc(F)c(F)c3Nc3ccc(I)cc3F)cc(=O)oc2c1	–	> 10000	IC50 [19]: > 30000 nM; fold change (FC) [20]: > 5085; Drug recovery [21]: < 10%
